In experiment [1] the test system is Osteoclasts from RAW264.7 macrophages. In words: Estrogen-like activity: TRAP activity by ELISA in osteoclasts. It counts as cell-based, murine. As to conditions: RANKL-differentiated osteoclasts; 24 h; 1 nM Estradiol or 10 ng/ml spike proteins. In general terms: An ELISA detects its analyte on a solid surface through an enzyme-linked reagent.
Experiment [2] has as its system MCF-7 breast cancer cells. In words: BrdU proliferation assay in MCF-7 breast cancer cell line. The class given is cell-based. The conditions noted are these: 24 hours.
Another experiment has as its system THP-1. In words: Proteome profile (cytokine array) of conditioned media from differentiated THP-1 cells. The class given is cell-based, Human.

This note sets out measurements from patent publication US20250282831A1, “NOVEL PROTEIN AND NUCLEIC ACID SEQUENCES FOR COVID-19 VACCINES” (Dompe' Farmaceutici SPA, priority 2021, published 2025).

For the compound `C[C@]12CC[C@@H]3c4ccc(O)cc4CC[C@H]3[C@@H]1CC[C@@H]2O` [Estradiol], in experiment [1], the “TRAP levels, Mean” value was 0.25 U/L.

Turning to `O=C(c1ccc(OCCN2CCCCC2)cc1)c1c(-c2ccc(O)cc2)sc2cc(O)ccc12` [ral, Raloxifene], the “cell proliferation, Mean” value in experiment [2] (peptides 10 ug/ml, spike 10 ng/ml, raloxifene 2 μM) is listed as 109.5 percentage of control. For the same compound, the “effect on estradiol- and spike-induced proliferation (in words)” value in experiment [2] (co-treatment with raloxifene 2 μM) is on record as “counteracted”. Also, the “effect on spike-induced IL-8 up-regulation (in words)” value in the experiment on THP-1 is “effective in counteracting the effect of spike”. Besides, the “effect on CHI3L1 up-regulation (in words)” value with THP-1 (co-treatment with spike and/or estradiol, 24 h) is “able to counteract only the effects of spike alone”. Also, the “effect on OPN upregulation (in words)” value in the experiment with THP-1 (co-treatment with spike, 24 h) is on record as “able to counteract the effects of spike alone”.
